Data published in patent US6906035B2, “Antimicrobial cationic peptides” (priority 1995, dated 2005).
Where “and” joins values, the source holds several entries; their conditions need not be identical. Equal values may be shown once. Read-outs that look alike come from different tables or passages of the source. Ends that are not written are not given here.

Experiments:
P. aeruginosa [1] = test: microbe, parasite or virus in culture; conditions: agent alone
Procedure: (§1) FICs are performed by checkerboard titrations of peptides in one dimension of a microtiter plate, and of antibiotics in the other dimension, for example. The FIC is calculated by looking at the impact of one antibiotic on the MIC of the other and vice versa. […] Preferably, an FIC of less than 0.5 is obtained for synergism. As used herein, FIC can be determined as follows: [formula]
(§2) Synergism is identified as an FIC of about ≦0.5.

S. epidermis = conditions: S. epidermis
Procedure: as §1
(§3) Briefly, cells were grown overnight at 37° C. in LB-S (Luria broth without any salt supplement) and diluted one in 10,000 in the same medium to give concentrations of about 10^4 to 10^5 CFU/ml. The broth dilutions were set up in a 96 well microtiter plate by putting 200 μl of LB-S containing the initial concentration of antibiotic or compound in column 1 and 100 μl of the same medium in columns 2-12. The compounds were diluted by taking 100 μl of broth from column 1 and mixing it with column 2, resulting in a one in two dilution. This was continued to column 10. Finally, 10 μl of bacteria were pipetted into columns 1-11, and the plates incubated overnight at 37° C. The next day the plates were scored for growth in the wells, and the MIC determined.

P. aeruginosa [2] = system: P. aeruginosa
Procedure: as §1, §3

Red Blood Cells = test: Red blood cell lysis; format: cell-based; conditions: concentration lysing Red Blood Cells
A. calcoaceticus [3] = conditions: agent alone
Procedure: as §1, §2

E. cloacae [4] = conditions: agent alone
Procedure: as §1, §2

Candida albicans = test: MIC, broth dilution in LB-S; format: cell-based
Procedure: as §1, §3

[5] = α helical content by CD spectra; format: physicochemical
Procedure: α Helical Content of Cationic Peptides by CD Spectra
The α helical content of the peptides were measured in buffer, liposomes and 20% Hexafluoroisopropanol (HFPIP). The liposomes constituted of POPC alone or POPC and POPC and 30% POPG (Table 7).

X. maltophila = test: organism not typed; conditions: agent alone
Procedure: as §1, §2

A. calcoaceticus [6] = test: MIC, broth dilution in LB-S; format: cell-based; conditions: additional MICs
Procedure: (§4) The biological activity of the peptides can be determined by standard methods known to those of skill in the art, such as “minimal inhibitory concentration (MIC)” assay described in the present examples, whereby the lowest concentration at which no change in OD is observed for a given period of time is recorded as MIC. Alternatively, “fractional inhibitory concentration (FIC)” is also useful for determination of synergy between the peptides of the invention, or the peptides in combination with known antibiotics. FICs are performed by checkerboard titrations of peptides in one dimension of a microtiter plate, and of antibiotics in the other dimension, for example. The FIC is calculated by looking at the impact of one antibiotic on the MIC of the other and vice versa. […] Preferably, an FIC of less than 0.5 is obtained for synergism. As used herein, FIC can be determined as follows: [formula]
as §3

E. coli = test: MIC, broth dilution in LB-S; format: cell-based
Procedure: as §4, §3

X maltophilia = test: MIC, broth dilution in LB-S; format: cell-based; conditions: additional MICs
Procedure: as §4, §3

S. aureus = test: MIC, broth dilution in LB-S; format: cell-based
Procedure: as §4, §3

E. cloacae [7] = test: MIC, broth dilution in LB-S; format: cell-based; conditions: additional MICs
Procedure: as §4, §3

E. faecalis = test: MIC, broth dilution in LB-S; format: cell-based; conditions: Table 1b, separate set of experiments
Procedure: as §4, §3

K. pneumoniae = test: MIC, broth dilution in LB-S; format: cell-based; conditions: additional MICs
Procedure: as §4, §3

[8] = mice
Procedure: Immediately afterwards LPS (10 or 20 μg) in 100 μl is injected. The mice are observed at 24 and 48 hours after injections and survivors noted.

E. coli ML 35 = test: Inner membrane permeabilization (ONPG hydrolysis by β-galactosidase); format: cell-based; conditions: E. coli ML 35, ONPG
Procedure: Inner membrane permeability was determined by measurement in E. coli ML 35 of β-galactosidase activity using ONPG as a substrate. Normally ONPG cannot pass across the cytoplasmic membrane to permit hydrolysis by the cytoplasmic enzyme β-galactosidase. However, cationic peptides, by permeabilizing the inner membrane, unmasks this enzyme leading to color development as ONP is released. […] Addition of citrate increased the lag time before the peptides were able to permeabilize the membranes. When the experiments were executed in cation adjusted media (CAMHB), the lag time was increased up to 30 minutes.

LPS = test: Dansyl polymyxin displacement assay; format: binding; conditions: Dansyl polymyxin displacement from LPS
Source text: In addition, the peptides of SEQ ID NO: 5-8 also bound effectively to LPS with high affinity based on Dansyl polymyxin displacement assays (Table 5).

Sequence: KWKSFIKKLTSAAKKVVTTAKPLISS [MBI 26]
- MIC (P. aeruginosa [1]; P. aeruginosa isolate 23, strain ATCC 27853): 64 µg/mL and 128 µg/mL
- MIC (P. aeruginosa [1]; P. aeruginosa isolate 24, strain 34): 64 µg/mL and 128 µg/mL
- MIC (P. aeruginosa [1]; P. aeruginosa isolate 25, strain 923-1): 64 µg/mL and 128 µg/mL
- MIC (P. aeruginosa [1]; P. aeruginosa isolate 26, strain 3101): 64 µg/mL and 128 µg/mL
- MIC (S. epidermis; Table 1a): ≧64
- MIC (S. epidermis; Table 1b, separate set of experiments): 32 µg/mL
- MIC (P. aeruginosa [2]; P. aeruginasa (H 103), additional MICs): 4 µg/mL
- MIC (P. aeruginosa [2]; P. aeruginosa (H187), Table 1a): 11 µg/mL
- MIC (P. aeruginosa [2]; P. aeruginosa (H187), Table 1b, separate set of experiments): 32 µg/mL
- MIC P. aeruginosa (H187) (P. aeruginosa [2]; P. aeruginosa (H187), Table 6): 4.5 µg/mL
- RBC Lysis (Red Blood Cells): >55 µg/mL
- MIC (A. calcoaceticus [3]; A. calcoaceticus isolate 1, strain ATCC 23055): 128 µg/mL and 64 µg/mL
- MIC (A. calcoaceticus [3]; A. calcoaceticus isolate 2, strain 23): 32 µg/mL and 64 µg/mL
- MIC (A. calcoaceticus [3]; A. calcoaceticus isolate 3, strain 27): 64 µg/mL and 32 µg/mL
- MIC (A. calcoaceticus [3]; A. calcoaceticus isolate 4, strain 28): 16 µg/mL and 32 µg/mL
- MIC (A. calcoaceticus [3]; A. calcoaceticus isolate 5, strain 8220): 64 µg/mL and 32 µg/mL
- MIC (A. calcoaceticus [3]; A. calcoaceticus isolate 6, strain 8221): 64 µg/mL
- MIC (A. calcoaceticus [3]; A. calcoaceticus isolate 7, strain 8222): 64 µg/mL
- MIC (A. calcoaceticus [3]; A. calcoaceticus isolate 8, strain 8223): 64 µg/mL and 32 µg/mL
- MIC (A. calcoaceticus [3]; A. calcoaceticus isolate 9, strain 8224): 64 µg/mL
- MIC (A. calcoaceticus [3]; A. calcoaceticus isolate 10, strain 8225): 64 µg/mL
- MIC (A. calcoaceticus [3]; A. calcoaceticus isolate 11, strain 8226): 64 µg/mL
- MIC (E. cloacae [4]; E. cloacae isolate 14, strain 938-2): 64 µg/mL
- MIC (E. cloacae [4]; E. cloacae isolate 15, strain B5546): 64 µg/mL and 32 µg/mL
- MIC (E. cloacae [4]; E. cloacae isolate 16, strain R4148): 64 µg/mL and 32 µg/mL
- MIC (E. cloacae [4]; E. cloacae isolate 17, strain R4148-2): 64 µg/mL and 32 µg/mL
- MIC (E. cloacae [4]; E. cloacae isolate 18, strain 3077): 64 µg/mL
- MIC (E. cloacae [4]; E. cloacae isolate 19, strain 3356): 128 µg/mL and 64 µg/mL
- MIC (Candida albicans; Candida albicans (CAN105), Table 1b, separate set of experiments): ≧64
- MIC (Candida albicans; Candida alibicans (CAN105), Table 1a): ≧64
- % α helicity ([5]; 20% HFIP): 70%
- % α helicity ([5]; Buffer): 0%
- % α helicity ([5]; POPC Liposomes): 0%
- % α helicity ([5]; POPC/POPG Liposomes (30% POPG)): 8%
- MIC (X. maltophila; X. maltophila isolate 34, strain ATCC 13637): 64 µg/mL
- MIC (X. maltophila; X. maltophila isolate 35, strain 6): 64 µg/mL and 128 µg/mL
- MIC (X. maltophila; X. maltophila isolate 40, strain R1302-1): 128 µg/mL and 64 µg/mL
- MIC (X. maltophila; X. maltophila isolate 41, strain R4230): 64 µg/mL
- MIC (A. calcoaceticus [6]): 2 µg/mL
- MIC (E. coli; E. coli 0111:B4, additional MICs): 2 µg/mL
- MIC (E. coli; E. coli (UB1005), Table 1a): 3 µg/mL
- MIC (E. coli; E. coli (UB1005), Table 1b, separate set of experiments): 4 µg/mL
- MIC E. coli (UB 1005) (E. coli; E. coli (UB 1005), Table 6): 1.1 µg/mL
- MIC (E. coli; E. coli. Bort, additional MICs): 2 µg/mL
- MIC (X maltophilia): 2 µg/mL
- MIC (S. aureus; S. aureus (K 147), Table 1a): ≧64
- MIC (S. aureus; S. aureus (K147), Table 1b, separate set of experiments): ≧64
- MIC (S. aureus; S. aureus (SAP0017), Table 1a): ≧64
- MIC (S. aureus; S. aureus (SAP0017), Table 1b, separate set of experiments): ≧64
- MIC (E. cloacae [7]): 2 µg/mL
- MIC (E. faecalis): ≧64
- MIC (K. pneumoniae): 8 µg/mL
- non-toxic dose [8]: up to 30.6 mg/kg
- Lag Time (E. coli ML 35): 210 s
- Rate of Hydrolysis (E. coli ML 35): 0.081 ΔAU min^−1
- 1max (LPS): 38%
